Assay results reported in publication PMC12040169 (PLOS Biology, 2025).

experiment: in vitro; settings: human, hela cells, % viability

| SMILES | viability at 28.5 h, 10 µM |
| --- | --- |
| CC1CN(C(=O)Nc2ccccc2F)CC(C)O1 (centres unmarked) [CBK004990] | 89.9% |
| CCCCNc1ncncc1-c1ccc(Br)cc1 [CBK005014C] | 88.6% |
| O=C(CCN1CCOCC1)N/N=C\c1cccs1 [CBK005035] | 90.6% |
| CCCCc1ccc(C(N)=O)nc1C(N)=O [CBK005061] | 88.8% |
| CNC1CCCCCC1(O)c1ccccc1 (centres unmarked) [CBK005073] | 99.2% |
| COC(=O)c1nn(C(=O)N(C)C)c(C)c1Br [CBK005077] | 88.5% |
| O=C1NC(=O)C2(CCN(Cc3ccccc3)CC2)N1 [CBK005078] | 86.8% |
| O=C(c1ccccc1Cl)c1cc(Cl)ccc1-n1ccnc1 [CBK005151] | 95.2% |
| CCN(CC)C(=O)C1CCCN(C(=O)Nc2cccc(OC)c2)C1 (centres unmarked) [CBK005159] | 92.9% |
| CCSc1cc(Nc2nc(Cl)cc(SCC)n2)nc(N)n1 [CBK005164] | 92.6% |
| CS(=O)(=O)N1CC2(CCNCC2)c2ccccc21 [CBK005171] | 94.4% |
| Cc1cn(S(=O)(=O)N(C)C)nc1-c1ccccc1 [CBK005210] | 89.9% |
| Clc1ccc(Nc2nnns2)cc1Cl [CBK005211] | 100% |
| O[C@H]1CCC[C@@H]1NCc1ccc(Cl)c(Cl)c1 [CBK005217] | 87% |
| CN(C)C(=O)[C@@]1(O)CCC2(c3ccc(Cl)cc3)CCCN(C)C2C1 (some centres unmarked) [CBK005234] | 92.8% |
| CC(=O)Oc1ccc(N2C(=O)CCSC2=S)cc1 [CBK005283] | 89.4% |
| COC(=O)c1ccc(CC(C)C)nc1SC1=NCCCN1 [CBK005294C] | 94.1% |
| CC[C@@H]1C(=O)OC[C@@H]1Cc1cncn1C [CBK005338C] | 85.3% |
| COc1ccc(CCN[C@H]2CCC[C@@H]2O)cc1OC [CBK005354G] | 78.4% |
| CC1(C)OCc2nc(C(O)C(C)(C)C)ccc2O1 (centres unmarked) [CBK005386] | 98.4% |
| Cc1ccc(CNc2cc(C)ccn2)cc1 [CBK005419] | 106% |
| COC(C(=O)N(C)C)C(OC)C(=O)N(C)C (centres unmarked) [CBK005447] | 111% |

| SMILES | viability at 28.5 h, 10 µM |
| --- | --- |
| CS(=O)(=O)c1sc(C(=O)O)c2c1C=CCC2 [CBK005513] | 87.3% |
| CC1(C)CC(=O)C=C(SCC(=O)C(C)(C)C)S1 [CBK005523] | 106% |
| CCOC(=O)CS(=O)(=O)Cc1cc(Cl)nc(Cl)c1 [CBK005544] | 109% |
| O=C(NC(=O)N1CCOCC1)c1csnn1 [CBK005561] | 86.4% |
| Nc1c(C(F)(F)F)cc(Cl)nc1Cl [CBK005620] | 95.7% |
| C#CCOc1cccc2oc(CCC)cc(=O)c12 [CBK005628] | 87.6% |
| CCOC(=O)c1sc(Sc2nnc(C(F)(F)F)n2C)c2c1CC(C)(C)CC2=O [CBK005649] | 101% |
| CS(=O)(=O)c1sc(C(=O)NC(=S)Nc2cccc(C(F)(F)F)c2)c2c1C=CCC2 [CBK005654] | 96.9% |
| C[S+]([O-])c1sc(Cl)c2c1C(=O)CCC2 (centres unmarked) [CBK005657] | 104% |
| CC(=O)c1ccc2c3c(cccc13)CC(N(C)C)C2 (centres unmarked) [CBK005691S] | 95.8% |
| O=S(=O)(NCCCN1CCOCC1)c1cc(C(F)(F)F)cc(C(F)(F)F)c1 [CBK005796] | 91% |
| CC(C)(C)c1nc(COc2ccc3nonc3c2)no1 [CBK005831] | 91.8% |
| S=c1nc[nH]cc1-c1ccc(Br)cc1 [CBK005833] | 87.6% |
| COC(=O)CCCCCSc1nc2ccc(O)c([N+](=O)[O-])c2s1 [CBK005867] | 106% |
| CCOc1ccc2nc(SCCN3CCOCC3)sc2c1 [CBK005888] | 89.6% |
| Nc1nccc(-c2cc(OCC(F)(F)F)ccc2OCC(F)(F)F)n1 [CBK005948] | 94.6% |
| O=C(Nc1nccc(-c2cc(OCC(F)(F)F)ccc2OCC(F)(F)F)n1)c1cccs1 [CBK005949] | 95.5% |
| Cc1c(C#N)sc(-c2nc[nH]n2)c1C [CBK005952] | 77.6% |
| CSc1sc(C(=O)CC#N)c2c1C=CCC2 [CBK006004] | 91% |
| Nc1cc(O)n(Cc2ccco2)c(=S)n1 [CBK006010] | 99.9% |
| CCOC(=O)c1cc2c(CNc3ccc(OC)nc3)cccc2o1 [CBK006086] | 91.7% |
| O=C(c1cccs1)n1ccc(-c2ccc3c(c2)CCO3)n1 [CBK006090] | 97.6% |

| SMILES | viability at 28.5 h, 10 µM |
| --- | --- |
| CC1(C)C=Cc2cc(/C(N)=N/O)ccc2O1 [CBK006095] | 96.2% |
| O=C(Nc1ccc(C(F)(F)F)cc1)C1CCCS1 (centres unmarked) [CBK006142] | 92.5% |
| S=C(Nc1ccccc1)N1CCCCC1CN1CCCCC1 (centres unmarked) [CBK006196] | 112% |
| COC(=O)c1sc(-c2ccsc2)cc1N [CBK006256] | 91.8% |
| COCCCNC(=S)N/N=C/c1ccco1 [CBK006272] | 104% |
| CSCC(O)Cn1nc(O)cc(C)c1=O (centres unmarked) [CBK006293] | 105% |
| CSc1cc(-c2cccs2)[nH]c(=O)c1C#N [CBK006350] | 79.7% |
| CSc1c(C#N)c(-c2cc(C(C)(C)C)on2)nn1C [CBK006360] | 96.4% |
| COc1cc(C(F)(F)F)c(-c2ncn[nH]2)cn1 [CBK006362] | 101% |
| O=C(Cc1nn[nH]n1)Nc1ccc(F)c(Cl)c1 [CBK006384] | 95.4% |
| CCCc1cc(=O)[nH]c(SCc2noc(-c3snnc3C)n2)n1 [CBK006474] | 87.4% |
| Fc1cccc(Cl)c1CN1CNC(=S)NC1 [CBK006480] | 88.7% |
| CC1(C)[C@H]2CC/C(=N/O)[C@]1(C)NC2=O [CBK006513] | 84.8% |
| COc1cc(OC)c2nc(C(F)(F)F)cc(Cl)c2c1 [CBK006518] | 83.1% |
| O=C(O)c1nn(-c2ccccc2)c2cc([N+](=O)[O-])ccc12 [CBK006532] | 95% |
| COC(=O)CC1(C)C(=O)CCC2(C)C1=CCc1ccccc12 (centres unmarked) [CBK006547] | 105% |
| O=C1CC(Cl)Sc2sc3ccccc3c21 (centres unmarked) [CBK006551] | 86.6% |
| COC(=O)Cc1c(O)nn(C)c1Cc1cccc(C(F)(F)F)c1 [CBK006608] | 99.5% |
| O=C1C[C@H]2[C@H](CC3(SCCS3)[C@@H]2CO)O1 [CBK006615] | 90.2% |
| Nc1ncnc(Nc2cc(C(F)(F)F)cc(C(F)(F)F)c2)n1 [CBK006617] | 86.8% |
| C/C(=N\N=C1/NC(=O)C(CC(=O)O)S1)c1ccc(CC(C)C)cc1 (centres unmarked) [CBK006661] | 93.5% |
| C#CCOC(=O)NC(=O)c1csnn1 [CBK006685] | 114% |

| SMILES | viability at 28.5 h, 10 µM |
| --- | --- |
| CC(=O)CSc1nsc(SCC(C)=O)n1 [CBK006702] | 89.6% |
| C1C/C(=N/N=C2\CCCc3nonc32)c2nonc2C1 [CBK006721] | 93.9% |
| O=[N+]([O-])c1ccc(Sc2ccccc2C2=NCCCN2)nc1 [CBK006747C] | 101% |
| Brc1cccc(NN=C2CCCC2)n1 [CBK006748] | 85.3% |
| OC12CCCON1OC(c1ccccc1)C2 (centres unmarked) [CBK006752] | 111% |
| O=C1NN=C(CSCCO)Oc2ccccc21 [CBK006771] | 88.5% |
| CC(=O)c1sc(=S)n(N(C)C)c1C [CBK006774] | 91.6% |
| CCN(CC)C1=NC(=S)N(C)C(c2ccc(OC)cc2)S1 (centres unmarked) [CBK006804] | 99.3% |
| COc1cc(C2CC(=O)N(c3cc(C)on3)C(=O)C2)cc(OC)c1OC [CBK006810] | 109% |
| Cc1nn(-c2ccccc2)c2sncc12 [CBK006869] | 109% |
| c1ccc(C2=NN=C(N3CCOCC3)SC2)cc1 [CBK006876G] | 97.3% |
| NNC(=O)CSc1nnc2ccc(C(F)(F)F)cn12 [CBK006897] | 90.3% |
| O=C(O)c1cc(Sc2nnnn2-c2ccccc2)c2ccccc2c1O [CBK006925] | 87.8% |
| COc1ccc(C)cc1N1CCCN(c2cc(C)ccc2OC)C1=O [CBK006937] | 84.8% |
| O=C(CCCC(=O)N1CCCC1)N1CCCC1 [CBK006992] | 108% |
| CCOC(=O)c1ccoc1C[N+](C)(CC)CC [CBK007022I] | 83.7% |
| CC(=O)OC(C(=O)N1CCCCCC1)c1ccc(Br)cc1 (centres unmarked) [CBK007027] | 109% |
| CNS(=O)(=O)N1CCN(S(=O)(=O)NC)CC1 [CBK007064] | 93.7% |
| CCCC1NCCn2cccc21 (centres unmarked) [CBK007074F] | 85.6% |
| S=C1NCCN1c1nnc(-c2cccs2)[nH]1 [CBK007096] | 97.3% |
| O=C(c1cc(Br)cc2c1OCC2)N1CCCCC1 [CBK007109] | 91.8% |
| CCOC(=O)c1nc(C)sc1-c1ccnn1S(C)(=O)=O [CBK007130] | 108% |

same assay, conditions: human, hela cells, % viability, bulk resorufin, single well

| SMILES | viability at 28.5 h, 10 µM |
| --- | --- |
| C[C@@H]1[C@H]2Cc3ccc(O)cc3[C@]1(C)CCN2Cc1ccoc1 [CBK005262G] | 103% |
